# Experimental data reported in patent US20230172897A1, “METHODS OF TREATING BREAST CANCERS WITH SELECTIVE ANDROGEN RECEPTOR MODULATORS AND ADDITIONAL THERAPEUTIC AGENTS” (VERU, INC., priority 2021, published 2023).
# Where “and” joins values, the source holds several entries; their conditions need not be identical. Identical values can stand only once.
# Columns and labels:
# [1] = test system: MCF-7 cells stably transfected with AR; experiment: MCF-7-AR xenograft in ovariectomized, estradiol-supplemented nude mice (Formula VIII); type: in vivo; settings: 30 mg/kg per day
# Method: Once tumors reached 100-200 mm^3, the animals were randomized and treated with vehicle or 30 mg/kg per day of Formula VIII. Tumor volumes and body weights were measured thrice weekly. At the end of 5 weeks of treatment, the animals were sacrificed, tumors weighed and stored for RNA and protein isolation and histology. *significance at P<0.05.
# In addition, uterus weights were measured in these xenograft studies, and Western blot from MCF-7 tumor xenografts were probed for AR.
# MCF7 palboR cells = experiment: Proliferation of palbociclib resistant MCF-7 cells; type: cell-based
# Text: Data were presented as mean values±s.e.m. […] Data represented the mean±s.e.m. of four replicate cell culture wells per condition. […] P values are indicated by gray asterisks, where ****P<0.0001 for all highlighted comparisons.
# Tissue samples from an ER-positive, PR-negative, and HER2-negative (ER^+, PR^−, HER2^−) patient that progressed on (i.e., was resistant to) palbociclib were implanted into animal (NSG mice) models and grown as a patient-derived xenograft (PDX). […] This human tumor model also had amplification of the cyclin D1 (CCND1^Amp) gene which has been implicated as a driver of therapeutic resistance to CDKi. […] This is also observed in other models tested in vitro including a palbociclib resistant MCF-7 (MCF7 palbo^R) line (FIG. 44B).
# [2] = test system: breast cancer specimens obtained from patients; experiment: Ex vivo sponge culture of breast cancer patient specimens, real time PCR; settings: 3 days
# [3] = test system: metastatic or locally advanced ER+/AR+ breast cancer; experiment: Phase 2 clinical trial (G200802), 9 mg or 18 mg daily; type: in vivo, postmenopausal women; settings: for Best overall objective tumor response: CR (number) / Best overall objective tumor response: PR (number): all evaluable patients; for Average rPFS / Clinical Benefit Response Rate / Clinical Benefit Responses (CR + PR + SD) / Median rPFS / Objective Response Rate / Objective Responses (CR + PR): measurable disease at baseline
# Method: Each dose arm was treated independently, and each assessed for efficacy using Simon's two-stage (optimal) design (Simon R. Optimal two-stage designs for Phase 2 clinical trials. Controlled Clinical Trials 1989; 10: 1-10). Subjects were randomized in a 1:1 fashion to one of the two dose arms.
# Randomization was stratified by subjects presenting with bone only metastases and all other subjects, and further by setting of immediately preceding therapy (adjuvant setting or metastatic setting) in order to balance the proportion of subjects with these presenting features in each dose arm.
# Thirty-six to eighty-eight (36-88) subjects with centrally confirmed AR+ who received at least one dose of study drug (evaluable subjects) were needed for primary efficacy analysis purposes and were a subset of the full analysis set (FAS). Fifty patients in the 9 mg cohort and 52 patients in the 18 mg cohort met these criteria. […] Other statistical parameters that were part of the sample size calculation are α=0.025 (one-sided) and power=90%. The first stage in each study arm was assessed among the first 18 evaluable subjects. Greater than 3/18 subjects achieved CB (defined as CR, PR, or SD) at week 24, and both arms proceeded to the second stage of recruitment up to a total of 44 evaluable subjects per arm. Otherwise, the arm would have been discontinued for lack of efficacy. Statistical significance, i.e., rejection of the null hypothesis of an unacceptably low CBR of ≤10% in favor of the alternative hypothesis that indicated the higher rate, ≥30%, was more likely, would be declared if at least 9/44 subjects achieved CB at week 24 in that arm.
# These patients on the study had measurable disease at baseline and an AR staining prior to entry into the study. The radiographic imaging in this patient population was done every 12 weeks (2.7 months). Therefore, the minimum radiographic progression free survival (rPFS) that could be determined is approximately 2.7 months. 90% of the patients in the study had previously received non-endocrine based chemotherapy. The patients in this study had failed an average of 2 prior treatment lines for metastatic disease (range=0-5). FIG. 43 provides a scatterplot for the patients in this study with regard to the correlation between % AR-positive staining at baseline (% AR staining) and rPFS. […] However, in patients with greater than or equal to 40% AR-positive staining, the rPFS was delayed to variable extents (scatter plot pattern) in many to most cases. A positive correlation between rPFS and % AR staining was seen above the threshold of 40% AR staining. To explore this positive correlation further, several subgroups of AR % staining were defined and analyzed for metrics of efficacy, as shown in Table 14.
smiles,measurement,setting,value
"C[C@](O)(COc1ccc(C#N)cc1)C(=O)Nc1ccc(C#N)c(Cl)c1 [Formula VIII, (S)—N-(3-chloro-4-cyanophenyl)-3-(4-cyanophenoxy)-2-hydroxy-2-methylpropanamide]",uterus weight in estrogen supplemented animals,[1],inhibited uterus weight
same,inhibition of growth of MCF-7 breast cancer cell xenografts,[1]; 5 weeks,greater than 50%
"C[C@](O)(COc1ccc(C#N)cc1)C(=O)Nc1ccc(C#N)c(C(F)(F)F)c1 [Formula IX, (S)—N-(4-Cyano-3-(trifluoromethyl)phenyl)-3-(4-cyanophenoxy)-2-hydroxy-2-methylpropanamide]",activity on proliferation of MCF7 palboR cells,MCF7 palboR cells,modest activity
same,specimens in which ER function was inhibited,[2]; 1 μM Formula IX or 100 nM fulvestrant,3 of 8
same,specimens in which AR agonist activity was observed,[2]; 1 μM,4 of 8
same,ER function in specimen 1005,[2],inhibited the ER function
same,clinical benefit rate at 6 months,[3]; 9 mg,32%
same,Quality of life assessments,[3]; 9 mg and 18 mg cohorts,significant improvement from baseline
same,tolerability,[3]; 9 mg and 18 mg doses,well tolerated
same,response rate in patients previously treated with palbociclib and failed,"[3]; 9 mg arm, 3 patients",33%
same,Median duration of clinical benefit,[3]; 9 mg group,not reached
same,Best overall objective tumor response: CR (number),"[3]; 9 mg, post-hoc",3
same,Best overall objective tumor response: PR (number),"[3]; 9 mg, post-hoc",8
same,Average rPFS,"[3]; 9 mg, % AR staining 20-40",2.51 months
same,Clinical Benefit Response Rate,"[3]; 9 mg, % AR staining 20-40",22%
same,Clinical Benefit Responses (CR + PR + SD),"[3]; 9 mg, % AR staining 20-40",2
same,Median rPFS,"[3]; 9 mg, % AR staining 20-40",2.77 months
same,Objective Response Rate,"[3]; 9 mg, % AR staining 20-40",0%
same,Objective Responses (CR + PR),"[3]; 9 mg, % AR staining 20-40",0
same,Average rPFS,"[3]; 9 mg, % AR staining 40-60",4.62 months
same,Clinical Benefit Response Rate,"[3]; 9 mg, % AR staining 40-60",86%
same,Clinical Benefit Responses (CR + PR + SD),"[3]; 9 mg, % AR staining 40-60",6
same,Median rPFS,"[3]; 9 mg, % AR staining 40-60",2.93 months
same,Objective Response Rate,"[3]; 9 mg, % AR staining 40-60",43%
same,Objective Responses (CR + PR),"[3]; 9 mg, % AR staining 40-60",3
same,Average rPFS,"[3]; 9 mg, % AR staining 60-80",8.10 months
same,Clinical Benefit Response Rate,"[3]; 9 mg, % AR staining 60-80",80%
same,Clinical Benefit Responses (CR + PR + SD),"[3]; 9 mg, % AR staining 60-80",8
same,Median rPFS,"[3]; 9 mg, % AR staining 60-80",5.60 months
same,Objective Response Rate,"[3]; 9 mg, % AR staining 60-80",60%
same,Objective Responses (CR + PR),"[3]; 9 mg, % AR staining 60-80",6
same,Average rPFS,"[3]; 9 mg, % AR staining <20",2.83 months
same,Clinical Benefit Response Rate,"[3]; 9 mg, % AR staining <20",15%
same,Clinical Benefit Responses (CR + PR + SD),"[3]; 9 mg, % AR staining <20",2
same,Median rPFS,"[3]; 9 mg, % AR staining <20",2.70 months
same,Objective Response Rate,"[3]; 9 mg, % AR staining <20",0%
same,Objective Responses (CR + PR),"[3]; 9 mg, % AR staining <20",0
same,Average rPFS,"[3]; 9 mg, % AR staining <40",2.7 months and 2.70 months
same,Clinical Benefit Response Rate,"[3]; 9 mg, % AR staining <40",18%
same,Clinical Benefit Responses (CR + PR + SD),"[3]; 9 mg, % AR staining <40",4
same,Median rPFS,"[3]; 9 mg, % AR staining <40",2.72 months
same,Objective Responses (CR + PR),"[3]; 9 mg, % AR staining <40",0
same,Average rPFS,"[3]; 9 mg, % AR staining <60",3.17 months
same,Clinical Benefit Response Rate,"[3]; 9 mg, % AR staining <60",34%
same,Clinical Benefit Responses (CR + PR + SD),"[3]; 9 mg, % AR staining <60",10
same,Median rPFS,"[3]; 9 mg, % AR staining <60",2.77 months
same,Objective Response Rate,"[3]; 9 mg, % AR staining <60",10%
same,Objective Responses (CR + PR),"[3]; 9 mg, % AR staining <60",3
same,Average rPFS,"[3]; 9 mg, % AR staining >40",7.15 months
same,Clinical Benefit Response Rate,"[3]; 9 mg, % AR staining >40",80%
same,Clinical Benefit Responses (CR + PR + SD),"[3]; 9 mg, % AR staining >40",20
same,Median rPFS,"[3]; 9 mg, % AR staining >40",5.47 months
same,Objective Responses (CR + PR),"[3]; 9 mg, % AR staining >40",12
same,Average rPFS,"[3]; 9 mg, % AR staining >60",8.14 months
same,Clinical Benefit Response Rate,"[3]; 9 mg, % AR staining >60",78%
same,Clinical Benefit Responses (CR + PR + SD),"[3]; 9 mg, % AR staining >60",14
same,Median rPFS,"[3]; 9 mg, % AR staining >60",5.60 months
same,Objective Response Rate,"[3]; 9 mg, % AR staining >60",50%
same,Objective Responses (CR + PR),"[3]; 9 mg, % AR staining >60",9
same,Average rPFS,"[3]; 9 mg, % AR staining >80",8.18 months
same,Clinical Benefit Response Rate,"[3]; 9 mg, % AR staining >80",75%
same,Clinical Benefit Responses (CR + PR + SD),"[3]; 9 mg, % AR staining >80",6
same,Median rPFS,"[3]; 9 mg, % AR staining >80",6.23 months
same,Objective Response Rate,"[3]; 9 mg, % AR staining >80",38%
same,Objective Responses (CR + PR),"[3]; 9 mg, % AR staining >80",3
same,median duration of response in patients with an objective tumor response,"[3]; 9 mg, post-hoc",8.18 months
same,responders with duration of response >12 months,"[3]; 9 mg, post-hoc",25%
same,responders with duration of response ≥6 months,"[3]; 9 mg, post-hoc",67%
same,clinical benefit rate at 6 months,[3]; 18 mg,29%
same,response rate in patients previously treated with palbociclib and failed,"[3]; 18 mg arm, 6 patients",33%
same,Median duration of clinical benefit,[3]; 18 mg group,14.1 months
same,Best overall objective tumor response: CR (number),"[3]; 18 mg, post-hoc",1
same,Best overall objective tumor response: PR (number),"[3]; 18 mg, post-hoc",5
same,patients with an objective response after progression on estrogen blocking agents and CDK 4/6 inhibitor,"[3]; AR nuclei staining ≥40% (7 patients), post-hoc",3 patients
same,objective response rate after progression on estrogen blocking agents and CDK 4/6 inhibitor,[3]; AR nuclei staining ≥60% subgroup (4 patients),75%
same,first stage: subjects achieving CB at week 24,"[3]; both arms (9 mg, 18 mg), first 18 evaluable subjects",Greater than 3/18
